Compound `Cc1ccc(Cl)c2c1NC(=O)C2OC(=O)Cc1ccccc1` (stereo not given) has a logP of 3.19.
`O=C(O)C=C1c2ccccc2N(c2ccccc2)C(=O)C1(O)Cc1ccccc1` (stereo not given) gave a logP of 2.57.
In the case of `Cc1cc(C)c2c(c1)NC(=O)C2OC(=O)Cc1ccccc1` (stereo not given), the logP is reported as 3.22.
In the case of `CCOC(=O)C=C1c2ccccc2N(C)C(=O)C1(O)Cc1ccccc1` (stereo not given), the logP is reported as 4.75.
For `CCOC(=O)C=C1c2ccccc2NC(=O)C1(O)Cc1ccccc1` (stereo not given), the logP was 4.16.
Work on `O=C(O)C=C1c2ccccc2NC(=O)C1(O)Cc1ccccc1` (stereo not given) yielded a logP of 2.27.
For `CN1C(=O)C(O)(Cc2ccccc2)C(=CC(=O)O)c2ccccc21` (stereo not given), the logP was 2.31.
For `CCCCC(=O)OC1C(=O)Nc2c(C)ccc(C)c21` (stereo not given), the logP was 3.2.
With `CCCCC1(O)C(=O)N(c2ccccc2)c2ccccc2C1=CC(=O)O` (stereo not given) the logP was 2.44.
Work on `CCCCC1(O)C(=O)N(C)c2ccccc2C1=CC(=O)OCC` (stereo not given) yielded a logP of 4.21.
With `O=C(O)C=C1c2ccccc2N(c2ccccc2)C(=O)C1(O)c1ccccc1` (stereo not given) the logP was 2.83.
With `CCCCC1(O)C(=O)Nc2ccccc2C1=CC(=O)OCC` (stereo not given) the logP was 4.47.
Work on `CCCCC1(O)C(=O)Nc2ccccc2C1=CC(=O)O` (stereo not given) yielded a logP of 2.18.
`CCCCC(=O)OC1C(=O)Nc2cc(C)cc(C)c21` (stereo not given) gave a logP of 3.19.
`CCCCC1(O)C(=O)N(C)c2ccccc2C1=CC(=O)O` (stereo not given) gave a logP of 2.23.
